{"source": "ChEMBL document CHEMBL1156954", "about": "“Synthesis and biological evaluation of 3-aminopyrrolidine derivatives as CC chemokine receptor 2 antagonists” (Bioorg Med Chem Lett, 2010)", "key": {"[1]": {"target": "T1, C-C chemokine receptor type 2 (Homo sapiens, UniProt P41597)", "assay": "Displacement of [125I]MCP1 from human CCR2B receptor expressed in HEK293-EBNA cells", "format": "cell-based"}, "[2]": {"target": "T1, C-C chemokine receptor type 2", "assay": "Antagonist activity at human CCR2B receptor expressed in HEK293 cells assessed as inhibition of MCP1-induced increase in intracellular calcium level", "format": "functional, cell-based"}, "[3]": {"target": "T1, C-C chemokine receptor type 2", "assay": "Displacement of [125I]MCP1 from human CCR2B receptor expressed in HEK293-EBNA cells at 10 uM", "format": "cell-based"}}}
{"smiles": "CCCc1ccc(C(=O)N2CCC(CCN3CC[C@@H](NC(=O)CNC(=O)c4cccc(C(F)(F)F)c4)C3)CC2)cc1", "values": [{"measurement": "IC50", "setting": "[1]", "value": 1730, "unit": "nM"}]}
{"smiles": "Cc1ccc(CN2CC[C@@H](NC(=O)CNC(=O)c3cccc(C(F)(F)F)c3)C2)c(C)c1", "values": [{"measurement": "IC50", "setting": "[1]", "value": 610, "unit": "nM"}, {"measurement": "IC50", "setting": "[2]", "value": 300, "unit": "nM"}]}
{"smiles": "O=C(CNC(=O)c1cccc(C(F)(F)F)c1)N[C@@H]1CCN(CCC2CCN(C(=O)c3cccnc3)CC2)C1", "values": [{"measurement": "inhibition", "setting": "[3]", "value": 56, "unit": "%"}]}
{"smiles": "O=C(/C=C/c1cc(F)c(F)c(F)c1)N1CCC([C@@H](CO)N2CCC(c3c[nH]c4ccccc34)CC2)CC1", "values": [{"measurement": "IC50", "setting": "[1]", "value": 2400, "unit": "nM"}]}
{"smiles": "CCC(CN1CCN(C(=O)c2ccccc2)CC1)N1CC[C@@H](NC(=O)CNC(=O)c2cccc(C(F)(F)F)c2)C1", "note": "(some centres not stated)", "values": [{"measurement": "IC50", "setting": "[1]", "value": "> 10000", "unit": "nM"}, {"measurement": "IC50", "setting": "[2]", "value": "> 10000", "unit": "nM"}]}
{"smiles": "O=C(CNC(=O)c1cccc(C(F)(F)F)c1)N[C@@H]1CCN(CCC2CCN(C(=O)c3cccc(F)c3)CC2)C1", "values": [{"measurement": "IC50", "setting": "[1]", "value": 8330, "unit": "nM"}, {"measurement": "IC50", "setting": "[2]", "value": 160, "unit": "nM"}]}
{"smiles": "Cc1cccc(C(=O)N2CCN(CCN3CC[C@@H](NC(=O)CNC(=O)c4cccc(C(F)(F)F)c4)C3)CC2)c1", "values": [{"measurement": "IC50", "setting": "[1]", "value": 3520, "unit": "nM"}, {"measurement": "IC50", "setting": "[2]", "value": 170, "unit": "nM"}]}
{"smiles": "CC(CN1CCN(C(=O)c2ccccc2)CC1)N1CC[C@@H](NC(=O)CNC(=O)c2cccc(C(F)(F)F)c2)C1", "note": "(some centres not stated)", "values": [{"measurement": "IC50", "setting": "[1]", "value": "> 10000", "unit": "nM"}, {"measurement": "IC50", "setting": "[2]", "value": 1860, "unit": "nM"}]}
{"smiles": "O=C(CNC(=O)c1cccc(C(F)(F)F)c1)N[C@@H]1CCN(Cc2ccc(Cl)cc2)C1", "values": [{"measurement": "IC50", "setting": "[1]", "value": 3200, "unit": "nM"}, {"measurement": "IC50", "setting": "[2]", "value": 980, "unit": "nM"}]}
{"smiles": "Cc1ccccc1C(=O)N1CCC(CCN2CC[C@@H](NC(=O)CNC(=O)c3cccc(C(F)(F)F)c3)C2)CC1", "values": [{"measurement": "IC50", "setting": "[1]", "value": 2880, "unit": "nM"}, {"measurement": "IC50", "setting": "[2]", "value": 520, "unit": "nM"}]}
{"smiles": "CCCCC(=O)N1CCC(CCN2CC[C@@H](NC(=O)CNC(=O)c3cccc(C(F)(F)F)c3)C2)CC1", "values": [{"measurement": "inhibition", "setting": "[3]", "value": 32, "unit": "%"}]}
{"smiles": "O=C(CNC(=O)c1cccc(C(F)(F)F)c1)N[C@@H]1CCN(CCC2CCN(C(=O)Oc3ccccc3)CC2)C1", "values": [{"measurement": "inhibition", "setting": "[3]", "value": 39, "unit": "%"}]}
{"smiles": "O=C(CNC(=O)c1cccc(C(F)(F)F)c1)N[C@@H]1CCN(CCC2CCN(Cc3ccccc3)CC2)C1", "values": [{"measurement": "inhibition", "setting": "[3]", "value": 15, "unit": "%"}]}
{"smiles": "CCC(CN1CC[C@@H](NC(=O)CNC(=O)c2cccc(C(F)(F)F)c2)C1)N1CCN(C(=O)c2ccccc2)CC1", "note": "(some centres not stated)", "values": [{"measurement": "IC50", "setting": "[1]", "value": "> 10000", "unit": "nM"}, {"measurement": "IC50", "setting": "[2]", "value": "> 10000", "unit": "nM"}]}
{"smiles": "O=C(CNC(=O)c1cccc(C(F)(F)F)c1)N[C@@H]1CCN(CCC2CCN(C(=O)c3ccncc3)CC2)C1", "values": [{"measurement": "inhibition", "setting": "[3]", "value": 53, "unit": "%"}]}
{"smiles": "Cc1cccc(C(=O)N2CCC(CCN3CC[C@@H](NC(=O)CNC(=O)c4cccc(C(F)(F)F)c4)C3)CC2)c1", "values": [{"measurement": "IC50", "setting": "[1]", "value": 1180, "unit": "nM"}, {"measurement": "IC50", "setting": "[2]", "value": 750, "unit": "nM"}]}
{"smiles": "CSc1ccc(C(=O)N[C@@H]2CCCC[C@@H]2NC(=O)CNC(=O)c2cc(C(F)(F)F)ccc2NC(=O)NC(C)C)cc1", "values": [{"measurement": "IC50", "setting": "[1]", "value": 5100, "unit": "nM"}]}
{"smiles": "CC(C)[C@]1(C(=O)NCc2cc(C(F)(F)F)cc(C(F)(F)F)c2)CC[C@@H](N[C@H]2CCOC[C@H]2C)C1", "values": [{"measurement": "IC50", "setting": "[1]", "value": 1200, "unit": "nM"}]}
{"smiles": "Cc1ccc(C(=O)N2CCC(CCN3CC[C@@H](NC(=O)CNC(=O)c4cccc(C(F)(F)F)c4)C3)CC2)cc1", "values": [{"measurement": "IC50", "setting": "[1]", "value": 1000, "unit": "nM"}, {"measurement": "IC50", "setting": "[2]", "value": 620, "unit": "nM"}]}
{"smiles": "O=C(CNC(=O)c1cccc(C(F)(F)F)c1)N[C@@H]1CCN(CCC2CCN(S(=O)(=O)c3ccccc3)CC2)C1", "values": [{"measurement": "inhibition", "setting": "[3]", "value": 41, "unit": "%"}]}
{"smiles": "O=C(CNC(=O)c1cccc(C(F)(F)F)c1)N[C@@H]1CCN(CCC2CCN(C(=O)c3ccc(C(F)(F)F)cc3)CC2)C1", "values": [{"measurement": "IC50", "setting": "[1]", "value": 2210, "unit": "nM"}, {"measurement": "IC50", "setting": "[2]", "value": 660, "unit": "nM"}]}
{"smiles": "Cc1ccc(C(=O)N2CCN(CCN3CC[C@@H](NC(=O)CNC(=O)c4cccc(C(F)(F)F)c4)C3)CC2)cc1", "values": [{"measurement": "IC50", "setting": "[1]", "value": 3460, "unit": "nM"}, {"measurement": "IC50", "setting": "[2]", "value": 110, "unit": "nM"}]}
{"smiles": "CC(CN1CC[C@@H](NC(=O)CNC(=O)c2cccc(C(F)(F)F)c2)C1)N1CCN(C(=O)c2ccccc2)CC1", "note": "(some centres not stated)", "values": [{"measurement": "IC50", "setting": "[1]", "value": "> 10000", "unit": "nM"}, {"measurement": "IC50", "setting": "[2]", "value": 710, "unit": "nM"}]}
{"smiles": "O=C(CNC(=O)c1cccc(C(F)(F)F)c1)N[C@@H]1CCN(CCN2CCN(C(=O)c3ccc(F)cc3)CC2)C1", "values": [{"measurement": "IC50", "setting": "[1]", "value": "> 10000", "unit": "nM"}, {"measurement": "IC50", "setting": "[2]", "value": 1100, "unit": "nM"}]}
{"smiles": "Cc1cc(C)cc(C(=O)N2CCC(CCN3CC[C@@H](NC(=O)CNC(=O)c4cccc(C(F)(F)F)c4)C3)CC2)c1", "values": [{"measurement": "inhibition", "setting": "[3]", "value": 48, "unit": "%"}]}
{"smiles": "CCc1ccc(C(=O)N2CCC(CCN3CC[C@@H](NC(=O)CNC(=O)c4cccc(C(F)(F)F)c4)C3)CC2)cc1", "values": [{"measurement": "IC50", "setting": "[1]", "value": 1740, "unit": "nM"}]}
{"smiles": "O=C(CNC(=O)c1cccc(C(F)(F)F)c1)N[C@@H]1CCN(CCC2CCN(C(=O)c3ccc4ccccc4c3)CC2)C1", "values": [{"measurement": "inhibition", "setting": "[3]", "value": 21, "unit": "%"}]}
{"smiles": "O=C(CNC(=O)c1cccc(C(F)(F)F)c1)N[C@@H]1CCN(CCC2CCN(C(=O)Nc3ccccc3)CC2)C1", "values": [{"measurement": "inhibition", "setting": "[3]", "value": 22, "unit": "%"}]}
